Among the data in patent US11020395B2, “Cycloalkyl substituted triazole compounds as agonists of the APJ receptor” (AMGEN INC., priority 2016, dated 2021) are EC50 values, retold here.

In this experiment the target is human APJ receptor (Homo sapiens (Human), UniProt P35414). Put plainly: [35S]GTPγS binding assay on membranes from CHO cells stably expressing human APJ receptor. In kind it is biochemical. Conditions: [35S]GTPγS SPA, read-out: Activity hAPJ SPA EC50 IP. An outline of the steps: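 Membranes from CHO cells stably expressing FLAG-tagged human APJ were incubated with [35S]GTPγS in buffer with optimized GDP, MgCl2 and NaCl, 90 min at RT. EC50 values derived by non-linear regression, averaged over several independent experiments.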
Chain of human APJ receptor (P35414 whole entry): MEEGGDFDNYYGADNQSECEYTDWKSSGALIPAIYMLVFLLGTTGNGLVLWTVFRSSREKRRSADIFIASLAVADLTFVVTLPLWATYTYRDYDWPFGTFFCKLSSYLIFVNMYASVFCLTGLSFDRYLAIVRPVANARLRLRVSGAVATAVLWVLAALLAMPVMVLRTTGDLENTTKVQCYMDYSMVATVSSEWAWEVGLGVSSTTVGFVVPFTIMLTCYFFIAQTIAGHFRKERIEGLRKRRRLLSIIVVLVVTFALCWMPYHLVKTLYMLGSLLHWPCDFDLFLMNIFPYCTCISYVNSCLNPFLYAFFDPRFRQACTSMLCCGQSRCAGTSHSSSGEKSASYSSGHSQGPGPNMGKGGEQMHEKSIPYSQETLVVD
In general terms: GTPγS resists hydrolysis and so accumulates on activated G proteins.

pEC50: −log10 of the molar value.

Take `COc1ncnc(OC)c1-n1c(NS(=O)(=O)[C@@H](C)[C@H](OC)c2ncc(Cl)cn2)nnc1[C@H]1C[C@]2(CC2(F)F)C1` (single isomer, unassigned) [Example 205.0, (1R,2S)-1-(5-chloropyrimidin-2-yl)-N-(5-((3R,5s)-1,1-difluorospiro[2.3]hexan-5-yl)-4-(4,6-dimethoxypyrimidin-5-yl)-4H-1,2,4-triazol-3-yl)-1-methoxypropane-2-sulfonamide or (1R,2S)-1-(5-chloropyrimidin-2-yl)-N-(5-((3S,5r)-1,1-difluorospiro[2.3]hexan-5-yl)-4-(4,6-dimethoxypyrimidin-5-yl)-4H-1,2,4-triazol-3-yl)-1-methoxypropane-2-sulfonamide]: the pEC50 is 8.26.
With `COc1ncnc(OC)c1-n1c(NS(=O)(=O)[C@@H](C)[C@H](C)c2ncc(C)cn2)nnc1C1CCCC1` [Example 18.0, (2S,3R)-N-(5-cyclopentyl-4-(4,6-dimethoxypyrimidin-5-yl)-4H-1,2,4-triazol-3-yl)-3-(5-methylpyrimidin-2-yl)butane-2-sulfonamide] the figure was 8.68; with `COc1cccc(OC)c1-n1c(NS(=O)(=O)[C@@H](C)[C@H](OC)c2ncc(Cl)cn2)nnc1[C@H]1C[C@@](C)(F)C1` (single isomer, unassigned) [Example 195.0, (1R,2S)-1-(5-chloropyrimidin-2-yl)-N-(4-(2,6-dimethoxyphenyl)-5-((1s,3R)-3-fluoro-3-methylcyclobutyl)-4H-1,2,4-triazol-3-yl)-1-methoxypropane-2-sulfonamide or (1R,2S)-1-(5-chloropyrimidin-2-yl)-N-(4-(2,6-dimethoxyphenyl)-5-((1r,3S)-3-fluoro-3-methylcyclobutyl)-4H-1,2,4-triazol-3-yl)-1-methoxypropane-2-sulfonamide], 8.59.
As for `COc1ncnc(OC)c1-n1c(NS(=O)(=O)[C@@H](C)[C@@H](OC(C)C)c2cnc(C)cn2)nnc1C1CCC1` [Example 86.0, (1S,2S)-N-(5-cyclobutyl-4-(4,6-dimethoxy-5-pyrimidinyl)-4H-1,2,4-triazol-3-yl)-1-(5-methyl-2-pyrazinyl)-1-(2-propanyloxy)-2-propanesulfonamide], the pEC50 is 7.44.
`COc1ncnc(OC)c1-n1c(NS(=O)(=O)[C@@H](C)[C@H](OC)c2ncc(Cl)cn2)nnc1[C@H]1C[C@@H](C)C1` [Example 186.0, (1R,2S)-1-(5-chloro-2-pyrimidinyl)-N-(4-(4,6-dimethoxy-5-pyrimidinyl)-5-(cis-3-methylcyclobutyl)-4H-1,2,4-triazol-3-yl)-1-methoxy-2-propanesulfonamide]: the pEC50 was 9.05.
In the case of `COc1ncnc(OC)c1-n1c(NS(=O)(=O)[C@@H](C)[C@H](OC)c2ncc(Cl)cn2)nnc1[C@H]1C[C@@H](F)C1` (single isomer, unassigned) [Example 162.0, (1R,2S)-1-(5-chloropyrimidin-2-yl)-N-(4-(4,6-dimethoxypyrimidin-5-yl)-5-((1s,3R)-3-fluorocyclobutyl)-4H-1,2,4-triazol-3-yl)-1-methoxypropane-2-sulfonamide or (1R,2S)-1-(5-chloropyrimidin-2-yl)-N-(4-(4,6-dimethoxypyrimidin-5-yl)-5-((1r,3S)-3-fluorocyclobutyl)-4H-1,2,4-triazol-3-yl)-1-methoxypropane-2-sulfonamide], the pEC50 was 7.85.
`CO[C@H](c1ncc(Cl)cn1)[C@H](C)S(=O)(=O)Nc1nnc([C@H]2C[C@H](CO)C2)n1C(C)C` (single isomer, unassigned) [Example 137.0, (1R,2S)-1-(5-chloro-2-pyrimidinyl)-N-(5-(trans-3-(hydroxymethyl)cyclobutyl)-4-(2-propanyl)-4H-1,2,4-triazol-3-yl)-1-methoxy-2-propanesulfonamide or (1R,2S)-1-(5-chloro-2-pyrimidinyl)-N-(5-(cis-3-(hydroxymethyl)cyclobutyl)-4-(2-propanyl)-4H-1,2,4-triazol-3-yl)-1-methoxy-2-propanesulfonamide]: the pEC50 is 6.47.
Turning to `COCC1(n2c(NS(=O)(=O)[C@@H](C)[C@H](OC)c3ncc(Cl)cn3)nnc2[C@H]2C[C@H](CO)C2)CC1` (single isomer, unassigned) [Example 132.0, (1R,2S)-1-(5-chloro-2-pyrimidinyl)-N-(5-(trans-3-(hydroxymethyl)cyclobutyl)-4-(1-(methoxymethyl)cyclopropyl)-4H-1,2,4-triazol-3-yl)-1-methoxy-2-propanesulfonamide or (1R,2S)-1-(5-chloro-2-pyrimidinyl)-N-(5-(cis-3-(hydroxymethyl)cyclobutyl)-4-(1-(methoxymethyl)cyclopropyl)-4H-1,2,4-triazol-3-yl)-1-methoxy-2-propanesulfonamide], the negative-log EC50 (pEC50) is 5.90.
As to `COc1ncnc(OC)c1-n1c(NS(=O)(=O)[C@@H](C)[C@@H](OC(C)C)c2ncc(C)cn2)nnc1C1CCC1` [Example 83.0, (1S,2S)-N-(5-cyclobutyl-4-(4,6-dimethoxy-5-pyrimidinyl)-4H-1,2,4-triazol-3-yl)-1-(5-methyl-2-pyrimidinyl)-1-(2-propanyloxy)-2-propanesulfonamide], the negative-log EC50 (pEC50) is 8.22.
Take `COc1ncnc(OC)c1-n1c(NS(=O)(=O)[C@@H](C)[C@H](C)c2ncc(C)cn2)nnc1C1CCCCC1` [Example 5.0, (2S,3R)-N-(5-cyclohexyl-4-(4,6-dimethoxy-5-pyrimidinyl)-4H-1,2,4-triazol-3-yl)-3-(5-methyl-2-pyrimidinyl)-2-butanesulfonamide]: the pEC50 is 8.03.
Then `COc1ncnc(OC)c1-n1c(NS(=O)(=O)[C@@H](C)[C@H](OC)c2ncc(Cl)cn2)nnc1[C@H]1CC[C@@H]1C` (single isomer, unassigned) [Example 187.0, (1R,2S)-1-(5-chloropyrimidin-2-yl)-N-(4-(4,6-dimethoxypyrimidin-5-yl)-5-((1S,2S)-2-methylcyclobutyl)-4H-1,2,4-triazol-3-yl)-1-methoxypropane-2-sulfonamide or (1R,2S)-1-(5-chloropyrimidin-2-yl)-N-(4-(4,6-dimethoxypyrimidin-5-yl)-5-((1R,2R)-2-methylcyclobutyl)-4H-1,2,4-triazol-3-yl)-1-methoxypropane-2-sulfonamide], with 8.06.
As to “(2S,3R)-3-(5-chloropyrimidin-2-yl)-N-(5-((R)-2,2-difluorocyclopropyl)-4-(2,6-dimethoxyphenyl)-4H-1,2,4-triazol-3-yl)butane-2-sulfonamide or (2S,3R)-3-(5-chloropyrimidin-2-yl)-N-(5-((S)-2,2-difluorocyclopropyl)-4-(2,6-dimethoxyphenyl)-4H-1,2,4-triazol-3-yl)butane-2-sulfonamide [Example 220.0]”, the pEC50 is 7.41.
As to `COc1cccc(OC)c1-n1c(NS(=O)(=O)[C@@H](C)[C@@H](OC(C)C)c2ncc(C)cn2)nnc1[C@@H]1CCC[C@@H]1OC` (single isomer, unassigned) [Example 233.0], the negative logarithm of the EC50 (pEC50) is 7.03.
Then `CO[C@H](c1ncc(Cl)cn1)[C@H](C)S(=O)(=O)Nc1nnc(C2CCC2)n1C1CCOCC1` [Example 97.0, (1R,2S)-1-(5-chloropyrimidin-2-yl)-N-(5-cyclobutyl-4-(tetrahydro-2H-pyran-4-yl)-4H-1,2,4-triazol-3-yl)-1-methoxypropane-2-sulfonamide], with 6.43.
Regarding `C=C1CC(c2nnc(NS(=O)(=O)[C@@H](C)[C@H](OC)c3ncc(Cl)cn3)n2-c2c(OC)ncnc2OC)C1` [Example 118.0], the negative-log EC50 (pEC50) was 9.00.
As for `COc1ncnc(OC)c1-n1c(NS(=O)(=O)[C@@H](C)[C@H](OC)c2ncc(Cl)cn2)nnc1C1CC1` [Example 24.0, (1R,2S)-1-(5-chloropyrimidin-2-yl)-N-(5-cyclopropyl-4-(4,6-dimethoxypyrimidin-5-yl)-4H-1,2,4-triazol-3-yl)-1-methoxypropane-2-sulfonamide], the negative-log EC50 (pEC50) was 7.96.
Then `COc1ncnc(OC)c1-n1c(NS(=O)(=O)[C@@H](C)[C@H](OC)c2ncc(Cl)cn2)nnc1C1CCC1` [Example 7.0, (1R,2S)-1-(5-chloro-2-pyrimidinyl)-N-(5-cyclobutyl-4-(4,6-dimethoxy-5-pyrimidinyl)-4H-1,2,4-triazol-3-yl)-1-methoxy-2-propanesulfonamide], with 7.18.
Then `COc1cccc(OC)c1-n1c(NS(=O)(=O)[C@@H](C)[C@H](OC)c2ncc(Cl)cn2)nnc1[C@H]1CC[C@H](OC)C1` (single isomer, unassigned) [Example 215.0], with 7.18; and `COc1cccc(OC)c1-n1c(NS(=O)(=O)[C@@H](C)[C@@H](OC(C)C)c2ncc(C)cn2)nnc1[C@@H]1CCC[C@@H]1OC` (single isomer, unassigned) [Example 235.0], with 6.82; and `COc1cccc(OC)c1-n1c(NS(=O)(=O)[C@@H](C)[C@H](OC)c2ncc(Cl)cn2)nnc1[C@H]1C[C@H](Cl)C1` (single isomer, unassigned) [Example 153.0, (1R,2S)-1-(5-chloropyrimidin-2-yl)-N-(4-(2,6-dimethoxyphenyl)-5-((1r,3S)-3-chlorocyclobutyl)-4H-1,2,4-triazol-3-yl)-1-methoxypropane-2-sulfonamide or (1R,2S)-1-(5-chloropyrimidin-2-yl)-N-(4-(2,6-dimethoxyphenyl)-5-((1s,3R)-3-chlorocyclobutyl)-4H-1,2,4-triazol-3-yl)-1-methoxypropane-2-sulfonamide], with 8.82.
Then `COc1cccc(OC)c1-n1c(NS(=O)(=O)[C@@H](C)[C@@H](OC(C)C)c2ncc(C)cn2)nnc1[C@@H]1CCC[C@@H]1OC` (single isomer, unassigned) [Example 234.0], with 7.92.

As usually defined, the pEC50 is the negative decadic logarithm of the EC50, by convention in mol/L.
